Molecular target: PD-1/PD-L1 (Homo sapiens, UniProt Q9NZQ7)
Experiment: TR-FRET PD-1/PD-L1 binding inhibition at the molecular level (free proteins)
Details: Tag1-PD-L1 and Tag2-PD-1 proteins, twelve concentrations from 200 nM, 2 hours at room temperature, read-out: FRET assay (IC50)
Outline: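 HTRF read-out at 665/620 nm after 2 h at room temperature. Detection used anti-Tag1 Eu cryptate plus anti-Tag2 XL665 antibodies. Tagged PD-L1 and PD-1 proteins were pre-mixed with compound across twelve […] 1:2 dilutions starting at 200 nM.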

Chain of PD-1/PD-L1 (Q9NZQ7 19-238 limits assumed): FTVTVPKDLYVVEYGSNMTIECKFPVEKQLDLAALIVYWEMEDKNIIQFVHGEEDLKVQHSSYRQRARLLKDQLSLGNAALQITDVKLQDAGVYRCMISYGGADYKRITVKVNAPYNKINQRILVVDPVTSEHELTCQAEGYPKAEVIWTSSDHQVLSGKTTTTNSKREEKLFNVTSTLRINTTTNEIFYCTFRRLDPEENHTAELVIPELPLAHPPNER

IC50 | SMILES
0.01 to 0.1 µM | COc1cc(-c2cccc(-c3cccc(NC(=O)c4cc5n(n4)CCCC5O)c3Cl)c2Cl)cc(F)c1CNCCO (centres unmarked) [Compound 118, N-(2,2'-dichloro-3"-fluoro-4"-(((2-hydroxyethyl)amino)methyl)-5"-methoxy-[1,1':3',1"-terphenyl]-3-yl)-4-hydroxy-4,5,6,7-tetrahydropyrazolo[1,5-a]pyridine-2-carboxamide]
0.01 to 0.1 µM | COc1cc(-c2cccc(-c3cccc(NC(=O)c4cc5n(n4)CCCC5O)c3Cl)c2Cl)cc(F)c1CNC[C@@H]1CCC(=O)N1 (stereo partly drawn) [Compound 119, N-(2,2'-dichloro-3"-fluoro-5"-methoxy-4"-(((((S)-5-oxopyrrolidin-2-yl)methyl)amino)methyl)-[1,1':3',1"-terphenyl]-3-yl)-4-hydroxy-4,5,6,7-tetrahydropyrazolo[1,5-a]pyridine-2-carboxamide]
< 0.01 µM | COc1cc(-c2cccc(-c3cccc(NC(=O)c4cc5n(n4)CCCC5NCCO)c3Cl)c2Cl)cc(F)c1CNCCNC(C)=O (centres unmarked) [Compound 120, N-(4"-(((2-acetamidoethyl)amino)methyl)-2,2'-dichloro-3"-fluoro-5"-methoxy-[1,1':3',1"-terphenyl]-3-yl)-4-((2-hydroxyethyl)amino)-4,5,6,7-tetrahydropyrazolo[1,5-a]pyridine-2-carboxamide]
< 0.01 µM | COc1cc(-c2cccc(-c3cccc(NC(=O)c4cc5n(n4)CCCC5N4CC[C@@H](O)C4)c3Cl)c2Cl)cc(F)c1CNCCNC(C)=O (stereo partly drawn) [Compound 121, N-(4"-(((2-acetamidoethyl)amino)methyl)-2,2'-dichloro-3"-fluoro-5"-methoxy-[1,1':3',1"-terphenyl]-3-yl)-4-((R)-3-hydroxypyrrolidin-1-yl)-4,5,6,7-tetrahydropyrazolo[1,5-a]pyridine-2-carboxamide]
< 0.01 µM | COc1cc(-c2cccc(-c3cccc(NC(=O)c4cc5n(n4)CCCC5NCCO)c3Cl)c2Cl)cc(F)c1CN1CC[C@@H](O)C1 (stereo partly drawn) [Compound 122, N-(2,2'-dichloro-3"-fluoro-4"-(((R)-3-hydroxypyrrolidin-1-yl)methyl)-5"-methoxy-[1,1':3',1"-terphenyl]-3-yl)-4-((2-hydroxyethyl)amino)-4,5,6,7-tetrahydropyrazolo[1,5-a]pyridine-2-carboxamide]
< 0.01 µM | COc1cc(-c2cccc(-c3cccc(NC(=O)c4cc5n(n4)CCCC5N4CC[C@@H](O)C4)c3Cl)c2Cl)cc(F)c1CN1CC[C@@H](O)C1 (stereo partly drawn) [Compound 123, N-(2,2'-dichloro-3"-fluoro-4"-(((R)-3-hydroxypyrrolidin-1-yl)methyl)-5"-methoxy-[1,1':3',1 "-terphenyl]-3-yl)-4-((R)-3-hydroxypyrrolidin-1-yl)-4,5,6,7-tetrahydropyrazolo[1,5-a]pyridine-2-carboxamide]
< 0.01 µM | COc1cc(-c2cccc(-c3cccc(NC(=O)c4cc5n(n4)CCCC5NCCO)c3Cl)c2Cl)cc(F)c1CNCCO (centres unmarked) [Compound 124, N-(2,2'-dichloro-3"-fluoro-4"-(((2-hydroxyethyl)amino)methyl)-5"-methoxy-[1,1':3',1"-terphenyl]-3-yl)-4-((2-hydroxyethyl)amino)-4,5,6,7-tetrahydropyrazolo[1,5-a]pyridine-2-carboxamide]
< 0.01 µM | COc1cc(-c2cccc(-c3cccc(NC(=O)c4cc5n(n4)CCCC5N4CC[C@@H](O)C4)c3Cl)c2Cl)cc(F)c1CNCCO (stereo partly drawn) [Compound 125, N-(2,2'-dichloro-3"-fluoro-4"-(((2-hydroxyethyl)amino)methyl)-5"-methoxy-[1,1':3',1"-terphenyl]-3-yl)-4-((R)-3-hydroxypyrrolidin-1-yl)-4,5,6,7-tetrahydropyrazolo[1,5-a]pyridine-2-carboxamide]
0.01 to 0.1 µM | COc1cc(-c2cccc(-c3cccc(NC(=O)c4cc5n(n4)CCCC5NCCO)c3Cl)c2Cl)cc(F)c1CNC[C@@H]1CCC(=O)N1 (stereo partly drawn) [Compound 126, N-(2,2'-dichloro-3"-fluoro-5"-methoxy-4"-(((((S)-5-oxopyrrolidin-2-yl)methyl)amino)methyl)-[1,1':3',1"-terphenyl]-3-yl)-4-((2-hydroxyethyl)amino)-4,5,6,7-tetrahydropyrazolo[1,5-a]pyridine-2-carboxamide]
0.01 to 0.1 µM | COc1cc(-c2cccc(-c3cccc(NC(=O)c4cc5n(n4)CCCC5N4CC[C@@H](O)C4)c3Cl)c2Cl)cc(F)c1CNC[C@@H]1CCC(=O)N1 (stereo partly drawn) [Compound 127, N-(2,2'-dichloro-3"-fluoro-5"-methoxy-4"-(((((S)-5-oxopyrrolidin-2-yl)methyl)amino)methyl)-[1,1':3',1"-terphenyl]-3-yl)-4-((R)-3-hydroxypyrrolidin-1-yl)-4,5,6,7-tetrahydropyrazolo[1,5-a]pyridine-2-carboxamide]
< 0.01 µM | COc1cc(-c2cccc(-c3cccc(NC(=O)c4cc5n(n4)CCCC5N4CC[C@@H](O)C4)c3Cl)c2Cl)cc(F)c1CNC(C)(C)C(=O)O (stereo partly drawn) [Compound 128, 2-(((2',2"-dichloro-3-fluoro-3"-(4-((R)-3-hydroxypyrrolidin-1-yl)-4,5,6,7-tetrahydropyrazolo[1,5-a]pyridine-2-carboxamido)-5-methoxy-[1,1':3',1"-terphenyl]-4-yl)methyl)amino)-2-methylpropanoic acid]
< 0.01 µM | Cc1c(NC(=O)c2cc3n(n2)CCCC3O)cccc1-c1cccc(Nc2nc(C(F)F)nc3cc(CN4CC[C@@H](O)C4)cnc23)c1C (stereo partly drawn) [Compound 129, N-(3'-((2-(difluoromethyl)-7-(((R)-3-hydroxypyrrolidin-1-yl)methyl)pyrido[3,2-d]pyrimidin-4-yl)amino)-2,2'-dimethyl-[1,1'-biphenyl]-3-yl)-4-hydroxy-4,5,6,7-tetrahydropyrazolo[1,5-a]pyridine-2-carboxamide]
0.01 to 0.1 µM | CC(=O)NCCNC1CCCn2nc(C(=O)Nc3cccc(-c4cccc(Nc5nc(C(F)F)nc6cc(CN7CC[C@@H](O)C7)cnc56)c4C)c3C)cc21 (stereo partly drawn) [Compound 130, 4-((2-acetamidoethyl)amino)-N-(3'-((2-(difluoromethyl)-7-(((R)-3-hydroxypyrrolidin-1-yl)methyl)pyrido[3,2-d]pyrimidin-4-yl)amino)-2,2'-dimethyl-[1,1'-biphenyl]-3-yl)-4,5,6,7-tetrahydropyrazolo[1,5-a]pyridine-2-carboxamide]
< 0.01 µM | Cc1c(NC(=O)c2cc3n(n2)CCCC3N2CC[C@@H](O)C2)cccc1-c1cccc(Nc2nc(C(F)F)nc3cc(CN4CC[C@@H](O)C4)cnc23)c1C (stereo partly drawn) [Compound 131, N-(3'-((2-(difluoromethyl)-7-(((R)-3-hydroxypyrrolidin-1-yl)methyl)pyrido[3,2-d]pyrimidin-4-yl)amino)-2,2'-dimethyl-[1,1'-biphenyl]-3-yl)-4-((R)-3-hydroxypyrrolidin-1-yl)-4,5,6,7-tetrahydropyrazolo[1,5-a]pyridine-2-carboxamide]
< 0.01 µM | Cc1c(NC(=O)c2cc3n(n2)CCCC3NCCO)cccc1-c1cccc(Nc2nc(C(F)F)nc3cc(CN4CC[C@@H](O)C4)cnc23)c1C (stereo partly drawn) [Compound 132, N-(3'-((2-(difluoromethyl)-7-(((R)-3-hydroxypyrrolidin-1-yl)methyl)pyrido[3,2-d]pyrimidin-4-yl)amino)-2,2'-dimethyl-[1,1'-biphenyl]-3-yl)-4-((2-hydroxyethyl)amino)-4,5,6,7-tetrahydropyrazolo[1,5-a]pyridine-2-carboxamide]
< 0.01 µM | Cc1c(NC(=O)c2cc3n(n2)CCCC3N2CC[C@@H](C(=O)O)C2)cccc1-c1cccc(Nc2nc(C(F)F)nc3cc(CN4CC[C@@H](O)C4)cnc23)c1C (stereo partly drawn) [Compound 133, (3R)-1-(2-((3'-((2-(difluoromethyl)-7-(((R)-3-hydroxypyrrolidin-1-yl)methyl)pyrido[3,2-d]pyrimidin-4-yl)amino)-2,2'-dimethyl-[1,1'-biphenyl]-3-yl)carbamoyl)-4,5,6,7-tetrahydropyrazolo[1,5-a]pyridin-4-yl)pyrrolidine-3-carboxylic acid]
0.01 to 0.1 µM | Cc1c(NC(=O)c2cc3n(n2)CCCC3NCC(=O)O)cccc1-c1cccc(Nc2nc(C(F)F)nc3cc(CN4CC[C@@H](O)C4)cnc23)c1C (stereo partly drawn) [Compound 134, 2-((2-((3'-((2-(difluoromethyl)-7-(((R)-3-hydroxypyrrolidin-1-yl)methyl)pyrido[3,2-d]pyrimidin-4-yl)amino)-2,2'-dimethyl-[1,1'-biphenyl]-3-yl)carbamoyl)-4,5,6,7-tetrahydropyrazolo[1,5-a]pyridin-4-yl)amino)acetic acid]
0.01 to 0.1 µM | Cc1c(NC(=O)c2cc3n(n2)CCCC3N2CCC(O)CC2)cccc1-c1cccc(Nc2nc(C(F)F)nc3cc(CN4CC[C@@H](O)C4)cnc23)c1C (stereo partly drawn) [Compound 135, N-(3'-((2-(difluoromethyl)-7-(((R)-3-hydroxypyrrolidin-1-yl)methyl)pyrido[3,2-d]pyrimidin-4-yl)amino)-2,2'-dimethyl-[1,1'-biphenyl]-3-yl)-4-(4-hydroxypiperidin-1-yl)-4,5,6,7-tetrahydropyrazolo[1,5-a]pyridine-2-carboxamide]
< 0.01 µM | Cc1c(NC(=O)c2cc3n(n2)CCCC3N2CCC(C(=O)O)CC2)cccc1-c1cccc(Nc2nc(C(F)F)nc3cc(CN4CC[C@@H](O)C4)cnc23)c1C (stereo partly drawn) [Compound 136, 1-(2-((3'-((2-(difluoromethyl)-7-(((R)-3-hydroxypyrrolidin-1-yl)methyl)pyrido[3,2-d]pyrimidin-4-yl)amino)-2,2'-dimethyl-[1,1'-biphenyl]-3-yl)carbamoyl)-4,5,6,7-tetrahydropyrazolo[1,5-a]pyridin-4-yl)piperidine-4-carboxylic acid]
< 0.01 µM | Cc1c(NC(=O)c2cc3n(n2)CCCC3NC(C)(C)C(=O)O)cccc1-c1cccc(Nc2nc(C(F)F)nc3cc(CN4CC[C@@H](O)C4)cnc23)c1C (stereo partly drawn) [Compound 137, 2-((2-((3'-((2-(difluoromethyl)-7-(((R)-3-hydroxypyrrolidin-1-yl)methyl)pyrido[3,2-d]pyrimidin-4-yl)amino)-2,2'-dimethyl-[1,1'-biphenyl]-3-yl)carbamoyl)-4,5,6,7-tetrahydropyrazolo[1,5-a]pyridin-4-yl)amino)-2-methylpropanoic acid]

Reference: patent publication EP4755888A1 (ILAb Co., Ltd., priority 2023, dated 2025)
